These results are taken from US7745481B2, “Methods and compositions for the treatment and prevention of tumors, tumor-related disorders and cachexia” (Daiichi Sankyo Company, Limited, priority 1997, dated 2010).

The structures appear in SMILES notation.

Experiment [1] relates to mouse malignant melanoma B16-BL6 cells. The experiment can be described thus: Inhibitory effect on lung metastasis of mouse malignant melanoma B16-BL6 cells. The format is in vivo. As to conditions: 1 mg/kg per day oral for five days, colonies counted on 10th day, C57BL/6 mice. The method, then:
Groups of mice, each group containing ten C57BL/6 mice (female, age: 8 weeks) were transplanted intravenously into the tail vein with 3×10^4 of mouse malignant melanoma B16-BL6 cells.
The mice were, when necessary, administered intravenously into the tail vein with a bacterial lipopolysaccharide (LPS) in an amount of 3 μg each within one hour before transplantation of the melanoma cells so as to accelerate lung metastasis of the melanoma [M. J. Anasagasti et al., J. Natl. Cancer Research, 89, 645-651 (1997).]
As test compounds, Compound No. 2-118, a compound of formula (IV), a compound of formula (V) and indomethacin were employed, and each was suspended in sterilized distilled water containing 0.5% w/v of carboxymethyl cellulose (CMC), and the suspensions were orally administered at a dose of 1 mg/kg per day for five days starting from the day of the melanoma cell transplantation.
Inhibitory activities on lung metastasis of the melanoma cells were evaluated in terms of the lung metastasis inhibitory rate (LMI %) by counting the number of metastatic colonies in the lung on the 10th day after intravenous transplantation of the mouse malignant melanoma B16-BL6 cells at the tail. LMI(%)=(1−Nt/Nc)×100 • Nt: Numbers of lung metastatic colonies on the 10th day in groups administered with the test compounds; and • Nc: Numbers of lung metastatic colonies on the 10th day in control groups which were not administered with the test compounds.

Experiment [2] has as its system mouse sarcoma S-180 cells. The experiment can be described thus: Antitumor effect against mouse sarcoma S-180 cells. It is filed as in vivo. The following applies: 1 mg/kg oral once per day for 5 days; tumor volume on day 7; Balb/c nude mice. The protocol: 1×10^6 mouse sarcoma S-180 cells were transplanted subcutaneously in Balb/c nude mice (females, 8 weeks old) in groups of 10 each.
The test compound, Compound No. 2-118, was suspended in sterilized distilled water containing 0.5% w/v carboxymethyl cellulose (CMC) and administered orally once per day for 5 days starting on the day the tumor cells were transplanted.
Antitumor activity was assessed according to the following equation to determine the tumor growth inhibitory rate (GI %) on day 7 after the transplantation. GI(%)=(1−Vt/Vc)×100 • Vt: Mean tumor volume on day 7 in a group administered test compound (*) • Vc: Mean tumor volume on day 7 in an untreated control group (*) • *: Tumor volume is defined as ½×[tumor long axis]×[tumor short axis]^2

Experiment [3] concerns Human colon cancer KM12-HX cells. As to the kind of experiment: Antitumor effect against human colon cancer KM12-HX cells (orthotopic transplant in nude mice). The following applies: 9 doses (days 3-7 and 10-13), tumor weight on day 14, Balb/c nude mice. It is filed as in vivo, mouse. From the text: Human colon cancer KM12-HX cells were orthotopically transplanted into the cecum of nude mice according to the method of Fu et al. [X. Fu et al., Anticancer Res., 12 (1992)] using Balb/c nude mice (females, 7 weeks old) in groups of 10 each.
Specifically, an incision was made into the left lower abdominal region of each mouse under Abacin anesthesia, after which a thin section of tumor measuring 5 mm on a side was sutured to the cecum using absorbable surgical sutures to perform orthotopic transplant. The incision was sutured using absorbable surgical sutures and the mice were warmed and promptly awakened from anesthesia.
The test compound was suspended in sterilized distilled water containing 0.5% w/v carboxymethyl cellulose (CMC) and administered orally in a total of 9 doses consisting of one dose per day from days 3 to 7 after the tumor cell transplantation and from days 10 to 13 after the transplantation.
Antitumor activity was assessed according to the following equation to determine the tumor weight inhibitory rate (GI %) on day 14 after the transplantation. GI(%)=(1−Vt′/Vc′)×100 • Vt′: Mean tumor weight on day 14 in the group administered the test compound • Vc′: Mean tumor weight on day 14 in an untreated control group

As to `Cc1cc(-c2ccc(C)c(C)c2)n(-c2ccc(S(N)(=O)=O)cc2)c1` [Compound 2-118, 2-(3,4-dimethylphenyl)-4-methyl-1-(4-sulfamoylphenyl)pyrrole], the “LMI (%) lung metastasis inhibitory rate” value in experiment [1] (LPS 3 μg i.v. before transplantation) came out at 34%; in experiment [1] (no LPS administration), 64%. For the same molecule, the “GI (%) tumor growth inhibitory rate” value in experiment [2] is on record as 54%. Moreover, the “GI(%) tumor weight inhibitory rate” value was found to be 12% in experiment [3] (0.3 mg/kg oral), 35% in experiment [3] (1 mg/kg oral), 45% in experiment [3] (3 mg/kg oral) and 59% in experiment [3] (10 mg/kg oral).
